{
  "source": "patent US20220282304A1",
  "about": "“SAME-SAMPLE ANTIBIOTIC SUSCEPTIBILITY TEST AND RELATED COMPOSITIONS, METHODS AND SYSTEMS” (CALIFORNIA INSTITUTE OF TECHNOLOGY, priority 2021, published 2022)",
  "key": {"[1]": {"test_system": "Escherichia coli isolate A", "test": "Same-sample filtration AST, replicate treated and concurrent reference conditions (Example 3), isolate A", "assay_type": "cell-based", "details": "1 μg/mL ETP, 60 minutes 37° C.", "procedure": "Isolate A was susceptible to ertapenem, while isolate B was resistant. The inoculum was small enough that no detectable difference in the sample's optical density at 600 mm (OD600) was detectable before and after inoculation by an Ultrospec 10 spectrophotometer with an analytical sensitivity of 0.01 absorbance units. After an incubation at 37° C., the media became turbid with an OD600 of 0.5 absorbance units after about 2 hours of incubation.\nTo begin the AST protocol, 23.75 μL of the above 8 bacteria batch culture dilutions was twice added to and mixed with 1.25 μL of water containing either 20 μg/mL or 0 μg/mL of dissolved ertapenem (ETP) antibiotic. As a result, […] at 1 μg/mL were created, and 8 untreated reference conditions were created (see Table 2 below). The […] were incubated at 37° C. for 60 minutes.\nAfter 60 minutes of incubation, the entire volume of each antibiotic exposure was transferred to an individual cellulose acetate filter unit with a 0.2 μm pore size. […]\n50 μL of fresh MHB media was spun through the filters after the first centrifugation (above) to wash away residual extracellular nucleic acids present in the fluid wetting the filters. […] In this experiment, the wash fluid was collected and analyzed to learn more about the protocol, but this washing step is not necessary for determining susceptibility of the isolate. […]"}, "[2]": {"test_system": "carbapenem-resistant Escherichia coli isolate", "test": "Digital same-sample filtration AST, one treated and one concurrent reference condition (Example 6)", "assay_type": "cell-based", "procedure": "The inoculum was small enough that no detectable difference in the sample's optical density at 600 mm (OD600) was detectable by a spectrophotometer with a sensitivity of 0.01 absorbance units. The OD600 of the culture measured every 30 minutes after the culture was incubated at 37° C. to calculate the doubling time of the strain. The media became turbid with an OD600 of 0.28 absorbance units after 3.1 hours of incubation.\nIn this experiment, the number and volume of sample partitions was restricted, for logistical reasons, to 96 partitions 10 μL, in volume, specifically the wells of a 96-well plate. A goal was chosen of having a >98% chance of ending up with at least 48 empty partitions. When all partitions are the same volume, the following formula relates the expected number of empty partitions, the partition volume, and the density of cells.\nN is the total number of partitions, n is the number of empty partitions, V is the partition volume, D is the density of cells, and t is a threshold probability chosen by the practitioner. Thus, in order to achieve digital sample partitioning with the available 96-well plate, the contrived clinical specimen was diluted to a cell density of 0.0375 cells/μL. Each 10 μL sample of the specimen would then contain 0.375 cells on average.\nTo begin the AST protocol, the contrived clinical sample was physically split into the 96 partitions by transferring 10 μL of the sample, in 96 separate transfers (actually 12 transfers with a multichannel pipette), to 96 wells of a microtiter plate. Each well contained 15 μL of Mueller-Hinton Broth (MHB) growth media. Half of the wells (48) contained 0 μg/mL of dissolved ETP antibiotic and served as reference condition antibiotic exposures. The other half of the wells contained 1.67 μg/mL of ETP (for a final concentration of 1.0 μg/mL) and served as 48 treated condition antibiotic exposures.\nThe 96 antibiotic exposures were incubated at 37° C. for 40 minutes.\nThe entire volume of each antibiotic exposure was transferred to a Millipore® 96-well sterile polystyrene MultiScreenHTS® filter plate (Millipore-Sigma MSGVS2210). Each well of the filter plate contained a hydrophilic polyvinylidene fluoride (PVDF) filter membrane with a 0.22 μm pore size. The antibiotic exposures were centrifuged at 2200 relative centrifugal force to speed the passage of the antibiotic exposure through the filter and into 96 collecting vessels. The collected fluid was called the “filtrate.” It is expected that the filtrate will contain all or most of the extracellular nucleic acids present in the antibiotic exposure, but none of the intracellular nucleic acids in the antibiotic exposure.\n50 μL of fresh MHB media was spun through the filters after the first centrifugation (above) to wash away residual extracellular nucleic acids present in the fluid wetting the filters. This wash fluid is not collected with the filtrates.\n10 μL of each of the filtrates was added to and mixed with 10 μL of Lucigen DNA Extraction Buffer, heated to 65° C. for 6 minutes, then heated to 98° C. for 4 minutes to create extracted filtrates.\n20 μL of DNA Extraction Buffer was placed into all of the wells of the filter plate, on top of the filters. The filter plate was heated to 65° C. for 6 minutes, shaking at 700 rpm, on a ThermoMixer® flat surface heating block. Then, the filter plate was taped to a clean 96-well polypropylene microtiter plate and centrifuged at 2000 rcf for 2 minutes. The DNA Extraction Buffer fluid that flowed through the filter was collected in the microtiter plate below the filter plate. Next, the microtiter plate was heated to 98° C. for 4 minutes inside a BioRad thermocycler. These collected and heated fluid volumes are termed the “extracted lysate”. […]"}, "[3]": {"details": "1.0 μg/mL ETP, 40 minutes, assuming exponential division, doubling time approximately 30 minutes"}, "[4]": {"details": "1.0 μg/mL ETP, 40 minutes, simple estimate"}, "[5]": {"details": "Treated 1.0 μg ETP, 40 minutes 37° C., 48 partitions, ddPCR"}},
  "data": [
    {"smiles": "C[C@@H](O)[C@H]1C(=O)N2C(C(=O)O)=C(S[C@@H]3CN[C@H](C(=O)Nc4cccc(C(=O)O)c4)C3)[C@H](C)[C@H]12", "note": "[ETP, ertapenem]", "values": [
      {"measurement": "susceptibility call (threshold: reference mean + 2 SD of fraction extracellular)", "setting": "[1]; alternative analysis", "value": "susceptible"},
      {"measurement": "susceptibility call (t-test treated vs untreated percent extracellular)", "setting": "[1]; ddPCR 23S rRNA", "value": "susceptible"},
      {"measurement": "treated EINAPV (fraction extracellular), alternative estimate", "setting": "[2]; 1.0 μg/mL ETP, 40 minutes, alternative cell estimate, reference EINAPV 1/6", "value": "1/7"},
      {"measurement": "intact cells in treated condition (alternative estimate)", "setting": "[2]; [3]", "value": 6},
      {"measurement": "killed cells in treated condition (alternative estimate)", "setting": "[2]; [3]", "value": 1},
      {"measurement": "susceptibility call", "setting": "[2]; 1.0 μg/mL ETP, 40 minutes, p-value vs 0.05 threshold", "value": "resistant"},
      {"measurement": "intact cells in treated condition at time of filtration (estimate)", "setting": "[2]; [4]", "value": 3},
      {"measurement": "killed cells in treated condition at time of filtration (estimate)", "setting": "[2]; [4]", "value": 1},
      {"measurement": "treated EINAPV (fraction extracellular)", "setting": "[2]; 1.0 μg/mL ETP, 40 minutes, simple estimate, reference EINAPV 1/4", "value": "1/4"},
      {"measurement": "Both (number of wells)", "setting": "[2]; [5]", "value": 0},
      {"measurement": "Empty (number of wells)", "setting": "[2]; [5]", "value": 44},
      {"measurement": "Extracellular only (number of wells)", "setting": "[2]; [5]", "value": 1},
      {"measurement": "Intracellular only (number of wells)", "setting": "[2]; [5]", "value": 3}
    ]}
  ]
}
